Assay results published in ChEMBL document CHEMBL1201862, “PubChem BioAssay data set” (2004).
Calls of active or inactive are those of the source.

Assays:
[1] = molecular target: T1, Mannose-6-phosphate isomerase (Homo sapiens, UniProt P34949); assay: inhibitors of human PMI, primary screen, biochemical, fluorescence intensity, coupled assay (AID 1209)
T1 sequence (P34949 whole entry): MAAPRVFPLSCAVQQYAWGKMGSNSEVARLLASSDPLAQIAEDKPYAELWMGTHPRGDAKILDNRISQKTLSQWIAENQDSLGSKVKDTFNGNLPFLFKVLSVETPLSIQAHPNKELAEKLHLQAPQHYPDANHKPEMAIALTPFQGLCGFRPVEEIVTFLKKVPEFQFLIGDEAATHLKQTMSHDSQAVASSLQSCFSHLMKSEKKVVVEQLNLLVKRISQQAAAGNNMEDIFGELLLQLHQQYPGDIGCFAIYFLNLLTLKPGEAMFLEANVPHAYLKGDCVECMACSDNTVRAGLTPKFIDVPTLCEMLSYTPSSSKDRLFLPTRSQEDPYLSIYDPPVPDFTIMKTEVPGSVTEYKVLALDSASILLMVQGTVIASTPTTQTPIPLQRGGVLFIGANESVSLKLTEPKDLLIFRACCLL

[2] = A Cell Based Secondary Assay To Explore Cytotoxicity of Compounds that Sensitize Mycobacterium Tuberculosis to Beta-Lactam Antibiotics.; assay type: functional
[3] = Luminescence Cell-Based Dose Response HTS to Identify Inhibitors of 5'UTR Stem-Loop Driven Prion Protein mRNA Translation in H4 Neuroglioblastoma Cells. [Related pubchem assays: 1827 (Project Summary), 1813 (Primary HTS)]; assay type: functional
[4] = inhibitors of firefly luciferase expression or activity, dose response, H4 neuroglioma cells, luminescence (AID 1990); assay type: functional, cell-based
[5] = luciferase reporter signal reduction – luminescence, H4-C neuroglioblastoma cells, dose response (AID 2458); assay type: functional, cell-based;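 further: H4 neuroglioblastoma cells stably carrying a luciferase reporter gene fusion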
[6] = inhibitors of SNCA 5'UTR-driven reporter translation, confirmation, H4 neuroglioma cells, luminescence (AID 1988); assay type: functional, cell-based
[7] = inhibitors of SNCA 5'UTR-driven translation, confirmation, luminescence, H4 neuroglioblastoma cells, dose confirmation (AID 2454); assay type: functional, cell-based;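 further: H4 neuroglioblastoma cells carrying an alpha-synuclein 5'UTR luciferase reporter; potency for inhibition of the luciferase signal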
[8] = cells; assay type: functional, cell-based
[9] = molecular target: Peroxisome proliferator-activated receptor gamma/Nuclear receptor coactivator 2 (Homo sapiens, UniProt P37231); assay type: functional;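 further: agonist potency for raising coactivator recruitment to the receptor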
Sequence of Peroxisome proliferator-activated receptor gamma/Nuclear receptor coactivator 2 (P37231 whole entry): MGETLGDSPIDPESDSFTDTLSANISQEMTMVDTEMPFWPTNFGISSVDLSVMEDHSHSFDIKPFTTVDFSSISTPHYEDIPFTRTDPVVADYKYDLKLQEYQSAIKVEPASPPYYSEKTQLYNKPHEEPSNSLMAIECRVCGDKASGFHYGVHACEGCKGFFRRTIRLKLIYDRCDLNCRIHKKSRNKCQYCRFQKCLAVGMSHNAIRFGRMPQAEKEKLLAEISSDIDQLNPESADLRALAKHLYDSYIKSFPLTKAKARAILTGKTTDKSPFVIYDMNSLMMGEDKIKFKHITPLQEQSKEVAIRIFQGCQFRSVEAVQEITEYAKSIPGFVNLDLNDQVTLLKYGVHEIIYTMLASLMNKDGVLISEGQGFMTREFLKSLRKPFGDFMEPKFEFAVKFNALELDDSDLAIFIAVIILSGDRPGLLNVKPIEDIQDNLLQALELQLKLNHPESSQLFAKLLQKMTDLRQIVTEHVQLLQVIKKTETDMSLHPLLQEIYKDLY
Sequence of Peroxisome proliferator-activated receptor gamma/Nuclear receptor coactivator 2 (Q15596 whole entry, further chain): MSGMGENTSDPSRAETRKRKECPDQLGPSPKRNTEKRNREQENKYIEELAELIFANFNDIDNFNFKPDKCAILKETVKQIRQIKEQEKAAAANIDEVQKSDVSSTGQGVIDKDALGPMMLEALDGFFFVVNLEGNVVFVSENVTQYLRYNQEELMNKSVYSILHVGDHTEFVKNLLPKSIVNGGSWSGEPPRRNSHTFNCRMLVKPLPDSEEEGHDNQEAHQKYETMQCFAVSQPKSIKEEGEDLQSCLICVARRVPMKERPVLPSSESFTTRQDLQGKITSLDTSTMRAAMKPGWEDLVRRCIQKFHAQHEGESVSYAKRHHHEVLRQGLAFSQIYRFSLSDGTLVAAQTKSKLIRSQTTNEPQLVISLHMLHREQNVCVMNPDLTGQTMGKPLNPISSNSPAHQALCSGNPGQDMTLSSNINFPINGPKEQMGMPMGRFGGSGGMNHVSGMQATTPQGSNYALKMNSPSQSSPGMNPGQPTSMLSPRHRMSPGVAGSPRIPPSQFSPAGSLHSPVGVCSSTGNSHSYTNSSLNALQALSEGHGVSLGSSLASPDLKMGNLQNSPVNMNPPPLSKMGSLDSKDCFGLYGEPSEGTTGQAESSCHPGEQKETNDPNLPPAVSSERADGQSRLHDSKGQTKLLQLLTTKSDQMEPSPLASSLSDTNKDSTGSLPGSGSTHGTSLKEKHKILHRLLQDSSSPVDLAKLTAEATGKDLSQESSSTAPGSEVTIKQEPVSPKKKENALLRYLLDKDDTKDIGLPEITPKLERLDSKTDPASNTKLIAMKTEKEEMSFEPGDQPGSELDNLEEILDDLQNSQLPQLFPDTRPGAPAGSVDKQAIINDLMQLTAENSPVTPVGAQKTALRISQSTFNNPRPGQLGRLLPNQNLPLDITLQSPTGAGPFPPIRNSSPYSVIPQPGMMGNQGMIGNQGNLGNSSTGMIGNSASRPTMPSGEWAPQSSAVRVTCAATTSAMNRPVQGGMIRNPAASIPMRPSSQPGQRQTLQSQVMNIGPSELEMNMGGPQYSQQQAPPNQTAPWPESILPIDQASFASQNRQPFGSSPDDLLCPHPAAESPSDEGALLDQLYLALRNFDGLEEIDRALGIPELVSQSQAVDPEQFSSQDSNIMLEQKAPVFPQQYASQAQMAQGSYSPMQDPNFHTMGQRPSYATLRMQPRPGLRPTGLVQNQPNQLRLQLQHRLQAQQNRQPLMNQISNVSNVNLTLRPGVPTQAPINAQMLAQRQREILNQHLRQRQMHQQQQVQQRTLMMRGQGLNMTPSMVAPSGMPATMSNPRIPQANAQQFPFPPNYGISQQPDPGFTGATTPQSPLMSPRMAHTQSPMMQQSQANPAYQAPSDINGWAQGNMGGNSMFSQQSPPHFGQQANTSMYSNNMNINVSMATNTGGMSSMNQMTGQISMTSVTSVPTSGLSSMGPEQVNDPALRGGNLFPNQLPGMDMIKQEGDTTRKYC

[10] = molecular target: Peroxisome proliferator-activated receptor gamma/Nuclear receptor coactivator 3 (Homo sapiens, UniProt P37231); assay type: functional;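 further: agonist potency for raising coactivator recruitment to the receptor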
Sequence of Peroxisome proliferator-activated receptor gamma/Nuclear receptor coactivator 3 (P37231 whole entry): as the sequence (P37231 whole entry) above
Sequence of Peroxisome proliferator-activated receptor gamma/Nuclear receptor coactivator 3 (Q9Y6Q9 whole entry, further chain): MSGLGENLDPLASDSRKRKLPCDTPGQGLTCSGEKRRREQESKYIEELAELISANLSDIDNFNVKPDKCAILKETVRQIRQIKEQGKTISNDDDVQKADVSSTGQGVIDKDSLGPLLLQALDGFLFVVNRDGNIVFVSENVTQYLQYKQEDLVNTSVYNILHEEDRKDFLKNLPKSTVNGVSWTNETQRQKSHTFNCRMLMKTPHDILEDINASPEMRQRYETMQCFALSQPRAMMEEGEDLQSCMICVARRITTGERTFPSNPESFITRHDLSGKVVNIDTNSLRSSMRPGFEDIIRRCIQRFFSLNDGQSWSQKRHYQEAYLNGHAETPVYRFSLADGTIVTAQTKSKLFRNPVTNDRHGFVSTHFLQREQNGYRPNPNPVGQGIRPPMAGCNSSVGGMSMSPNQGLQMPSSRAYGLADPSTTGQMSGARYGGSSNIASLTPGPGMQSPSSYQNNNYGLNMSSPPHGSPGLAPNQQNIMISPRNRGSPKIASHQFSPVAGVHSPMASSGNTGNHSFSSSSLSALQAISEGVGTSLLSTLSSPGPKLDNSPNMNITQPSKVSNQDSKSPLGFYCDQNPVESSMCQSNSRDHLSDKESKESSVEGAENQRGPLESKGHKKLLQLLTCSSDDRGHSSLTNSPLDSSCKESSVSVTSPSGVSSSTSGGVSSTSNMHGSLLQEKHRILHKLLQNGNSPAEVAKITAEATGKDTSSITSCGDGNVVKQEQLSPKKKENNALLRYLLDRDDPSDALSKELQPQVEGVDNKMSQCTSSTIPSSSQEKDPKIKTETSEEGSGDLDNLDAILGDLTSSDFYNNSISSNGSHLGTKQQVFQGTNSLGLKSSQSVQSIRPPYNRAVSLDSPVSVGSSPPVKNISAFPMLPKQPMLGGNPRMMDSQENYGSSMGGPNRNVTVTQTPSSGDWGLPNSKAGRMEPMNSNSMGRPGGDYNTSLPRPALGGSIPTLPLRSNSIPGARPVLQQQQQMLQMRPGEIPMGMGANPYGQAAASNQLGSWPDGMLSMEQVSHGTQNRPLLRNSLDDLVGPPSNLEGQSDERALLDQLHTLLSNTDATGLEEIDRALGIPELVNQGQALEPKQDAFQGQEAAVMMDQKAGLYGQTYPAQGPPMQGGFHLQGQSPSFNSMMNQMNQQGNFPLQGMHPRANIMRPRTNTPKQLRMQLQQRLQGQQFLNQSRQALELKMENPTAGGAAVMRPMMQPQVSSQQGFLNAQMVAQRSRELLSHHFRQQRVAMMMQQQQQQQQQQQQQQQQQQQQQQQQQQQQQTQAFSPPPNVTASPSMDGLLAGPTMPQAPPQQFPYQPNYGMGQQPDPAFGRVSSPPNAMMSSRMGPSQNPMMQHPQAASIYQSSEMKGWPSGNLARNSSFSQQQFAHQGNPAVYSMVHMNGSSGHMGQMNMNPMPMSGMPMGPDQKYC

[11] = molecular target: Peroxisome proliferator-activated receptor gamma/Nuclear receptor coactivator 1 (Homo sapiens, UniProt P37231); assay type: functional;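 further: agonist potency as compounds enhance coactivator SRC-1 recruitment to PPARgamma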
[12] = molecular target: Glyceraldehyde-3-phosphate dehydrogenase (Homo sapiens, UniProt P04406)
Sequence of Glyceraldehyde-3-phosphate dehydrogenase (P04406 whole entry): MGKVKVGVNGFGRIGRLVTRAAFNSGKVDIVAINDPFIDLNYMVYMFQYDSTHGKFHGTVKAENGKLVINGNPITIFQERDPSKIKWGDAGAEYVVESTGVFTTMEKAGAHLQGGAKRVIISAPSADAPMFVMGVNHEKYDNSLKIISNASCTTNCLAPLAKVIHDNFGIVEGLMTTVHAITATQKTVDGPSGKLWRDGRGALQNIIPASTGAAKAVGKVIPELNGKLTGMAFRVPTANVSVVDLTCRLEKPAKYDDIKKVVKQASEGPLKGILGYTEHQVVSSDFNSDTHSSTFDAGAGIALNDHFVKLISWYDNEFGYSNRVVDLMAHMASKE

| SMILES | EC50 [9] | EC50 [10] | EC50 [11] | other results |
| --- | --- | --- | --- | --- |
| Cc1ccc(N2C(=O)CC(Sc3nc[nH]n3)C2=O)cc1C (configuration not stated) |  |  |  | IC50 [1]: > 50 µM (not active) |
| O=C1COc2ccc(C(=O)/C=C/c3ccccc3)cc2N1 |  |  |  | CC50 [2]: 21.5 µM (active) |
| CCC(C)Nc1nc(N)c([N+](=O)[O-])c(NC2CCCCC2)n1 (configuration not stated) |  |  |  | EC50 [3]: < 0.1 µM (active); EC50 [4]: 13.2 µM (active); EC50 [5]: > 12 µM (not active); EC50 [6]: 9.77 µM (active); EC50 [7]: > 12 µM (not active); EC50 [8]: > 12 µM (not active) |
| N#Cc1ccccc1/C=N/Nc1nc(-c2ccccc2)c2cc(Br)ccc2n1 |  |  |  | CC50 [2]: > 40 µM (active) |
| CSc1ccccc1NC(=O)Cn1c(-c2cscn2)nc2ccccc21 | > 79.4 µM (not active) | > 79.4 µM (not active) | > 79.4 µM (not active) |  |
| N#Cc1ccc(/C=N/NC(=N)N)cc1 | > 79.4 µM (not active) | > 79.4 µM (not active) | > 79.4 µM (not active) |  |
| COc1ccc(C(=O)/N=c2\sc3ccccc3n2C)cc1OC | > 79.4 µM (not active) | > 79.4 µM (not active) | > 79.4 µM (not active) |  |
| COc1cccc(/C=N/NC(=O)c2csc(-n3nc(C)cc3C(F)(F)F)n2)c1 | > 79.4 µM (not active) | > 79.4 µM (not active) | > 79.4 µM (not active) |  |
| O=C(c1cc(-c2cc(F)c(Cl)cc2Cl)n[nH]1)N(CCO)CCO |  |  |  | IC50 [12]: > 10 µM (inconclusive) |
